Laboratory results from article PMC12032302, “A20 attenuates oxidized self-DNA-mediated inflammation in acute kidney injury” (Signal Transduction and Targeted Therapy, 2025).
“Also recorded” adds a separate entry of the source. Residues, ends and D or L forms follow the SMILES beside them.

Tests used:
NEK7 and NLRP3 complex = experiment: interaction of NEK7 and NLRP3 complex; assay type: binding
Description: Cells were lysed in mild lysis buffer with a protease inhibitor cocktail (Cell Signaling Technology, Cat#5872S) on ice for 10 min to perform the coimmunoprecipitation (co-IP) assay. Samples were then centrifuged at 12,000 rpm at 4 °C for 10 min, and the supernatant was incubated with the corresponding primary antibody (anti-HA, 1:100, Cell Signaling Technology, Cat#3724S) overnight at 4 °C. On the next day, magnetic beads were added and incubated for 1 h. The immunocoprecipitated protein was washed three times by MLB and then heated with 4× Laemmli loading buffer at 100 °C for 10 min. Samples were then subjected to western blot analysis.

HA-NEK7 K140A = experiment: biotin-P-II immunoprecipitation of HA-NEK7 K140A; assay type: binding, mouse; settings: co-IP with biotin-labeled P-II, HEK293T lysates, overnight 4 °C, immunoblot; Fig. 7c
Description: For biotin mediated immunoprecipitation, plasmids of HA-NEK7 (WT, K130A, L132R, K140A and Tri-MUT) were transfected into HEK293T cells for 2 days. Then, cells were lysed in MLB with inhibitor cocktail for 10 min at 4 °C. Cell lysates were collected and centrifuged at 12,000 rpm for 15 min at 4 °C and the supernatant was incubated with biotin conjunction peptide overnight at 4 °C. On the next day, streptavidin magnetic beads(Invitrogen, Lot#91221939) were added and incubated for 1 h. The immunocoprecipitated protein was then subjected to washing, heating, and western blot analysis.
Mouse HA-NEK7, FlAG-A20, and NLRP3 cDNA were amplified by employing standard PCR techniques from a mouse cDNA library. Subsequently, diverse cDNAs were inserted into mammalian expression vectors pcDNA3.1(+), pRK5, or pCMV6 with 3×Flag or 3×HA tags. For transient transfections, Lipofectamine 3000 was utilized according to the manufacturer’s instructions.

AKI mice [1] = experiment: serum creatinine of AKI mice; assay type: in vivo, mouse; settings: Cis-treated mice; A20-derived peptide 15 mg/kg i.p., pretreated; n = 5
Description: LPS (Sigma, Cat#L2630) was dissolved in PBS to 2.5 mg/mL for one-time intraperitoneal 25 mg/kg injection; deoxyribonuclease I (DNase I, Sigma, Cat#SLBV1446) was dissolved in PBS to 1 mg/mL and injected intraperitoneally at a dose of 10 mg/kg at 4 h before cisplatin or AA I injection and every 24 h after injection. Disulfiram (MedChemExpress, CAS:97-77-8) was diluted in corn oil to 12.5 mg/mL and injected 50 mg/kg intraperitoneally every 24 h after cisplatin or AA I administration. Cu(II) (Sigma, Cat#344419) was dissolved in PBS to 30 µg/mL and administered intraperitoneally 6 h before disulfiram at a dose of 0.15 mg/kg; TNF-α (Peprotech, Cat#315-01 A) was dissolved in PBS to 10 µg/mL and injected at 100 µg/kg once through the caudal vein 24 h before cisplatin injection. […] MCC950 (MedChem Express, CAS:256373-96-3) was dissolved in PBS to 5 mg/mL and injected intraperitoneally at a dose of 50 mg/kg 12 h before cisplatin or AA I injection and every 12 h after injection; berberine (APExBIO, Cat#N1368) was dissolved in PBS to 5 mg/mL and 5 mg/kg injected intraperitoneally at 36, 24 and 12 h before cisplatin; […] To supervise the effects of various treatments on survival time and rate, the mice were observed, and survival curves were generated. To investigate the specific mechanisms, whole blood was retrieved from the orbit, serum was separated through centrifugation on the 4th day, and the mice were then sacrificed by cervical dislocation. Mice were randomly assigned in experiments, while there was no blinding during the animal experiments. Renal function was evaluated based on serum creatinine level and histological features. Serum creatinine was determined in the Clinical Pharmacology Lab, Clinical Trial Center, WCH, SCU. The kidneys were extracted from euthanized mice, immediately fixed with 4% paraformaldehyde, and embedded in paraffin. Furthermore, the samples were cut into 5 µm thick sections. These tissue samples were subjected to hematoxylin-eosin (HE) and […] according to standard protocols with HE reagent (Biosharp, Cat#BL702B, BL703B) and Masson reagent (Servicebio, Cat#G1006-100ML). The pathological changes were detected through optical microscopy, and the tubulointerstitial injury score was determined as previously reported.

AKI mice [2] = experiment: survival of AKI mice; assay type: in vivo, mouse; settings: Cis-treated mice; A20-derived peptide 15 mg/kg i.p., pretreated; n = 10 per group
Description: Aristolochic acid I sodium salt was dissolved in PBS to 1 mg/mL and injected intraperitoneally at a dose of 10 mg/kg (body weight) every 24 h for 3 days; cisplatin was dissolved in PBS to 1.5 mg/mL for one-time intraperitoneal 25 mg/kg injection; LPS (Sigma, Cat#L2630) was dissolved in PBS to 2.5 mg/mL for one-time intraperitoneal 25 mg/kg injection; deoxyribonuclease I (DNase I, Sigma, Cat#SLBV1446) was dissolved in PBS to 1 mg/mL and injected intraperitoneally at a dose of 10 mg/kg at 4 h before cisplatin or AA I injection and every 24 h after injection. Disulfiram (MedChemExpress, CAS:97-77-8) was diluted in corn oil to 12.5 mg/mL and injected 50 mg/kg intraperitoneally every 24 h after cisplatin or AA I administration. Cu(II) (Sigma, Cat#344419) was dissolved in PBS to 30 µg/mL and administered intraperitoneally 6 h before disulfiram at a dose of 0.15 mg/kg; TNF-α (Peprotech, Cat#315-01 A) was dissolved in PBS to 10 µg/mL and injected at 100 µg/kg once through the caudal vein 24 h before cisplatin injection. Metformin (Sigma, Cat#D150959) was dissolved in PBS to 5 mg/mL and injected intraperitoneally at a dose of 50 mg/kg 24 h before cisplatin or AA I injection and every 24 h after injection. MCC950 (MedChem Express, CAS:256373-96-3) was dissolved in PBS to 5 mg/mL and injected intraperitoneally at a dose of 50 mg/kg 12 h before cisplatin or AA I injection and every 12 h after injection; berberine (APExBIO, Cat#N1368) was dissolved in PBS to 5 mg/mL and 5 mg/kg injected intraperitoneally at 36, 24 and 12 h before cisplatin; A20-derived-peptide was dissolved in ddH2O to 3 mg/mL and injected intraperitoneally at a dose of 15 mg/kg 1 h before cisplatin. To supervise the effects of various treatments on survival time and rate, the mice were observed, and survival curves were generated. To investigate the specific mechanisms, whole blood was retrieved from the orbit, serum was separated through centrifugation on the 4th day, and the mice were then sacrificed by cervical dislocation. Mice were randomly assigned in experiments, while there was no blinding during the animal experiments.

CSCC[C@H](NC(=O)[C@H](Cc1ccc(O)cc1)NC(=O)[C@H](CCC(N)=O)NC(=O)[C@H](CS)NC(=O)[C@H](C)NC(=O)[C@H](C)NC(=O)[C@H](Cc1c[nH]cn1)NC(=O)[C@H](CCSC)NC(=O)[C@H](CC(C)C)NC(=O)[C@H](CS)NC(=O)[C@H](CC(N)=O)NC(=O)CNC(=O)[C@H](CC(=O)O)NC(=O)CNC(=O)[C@H](CC(N)=O)NC(=O)[C@@H](NC(=O)[C@H](CCCCN)NC(=O)[C@H](CC(C)C)NC(=O)[C@H](C)NC(=O)[C@@H](NC(=O)[C@H](CC(C)C)NC(=O)[C@@H](N)CCCCN)C(C)C)[C@@H](C)O)C(=O)N[C@@H](Cc1c[nH]c2ccccc12)C(=O)NCC(=O)N[C@H](C(=O)N[C@@H](CCC(N)=O)C(=O)N[C@@H](CC(=O)O)C(=O)N[C@H](C(=O)N[C@@H](CC(=O)O)C(=O)O)[C@@H](C)O)C(C)C [P-II] (H-KLVALKTNGDGNCLMHAACQYMWGVQDTD-OH; N-terminus and C-terminus assumed)
interference with NEK7-NLRP3 interaction (NEK7 and NLRP3 complex): interfere with the interaction between NEK7 and NLRP3 through Lys140 of NEK7; also recorded: interfering the binding of NEK7 to NLRP3 complex
binding of NEK7 and P-II, effect of K140A mutation (HA-NEK7 K140A): significantly attenuate the binding of NEK7 and P-II; also recorded: Lys140 of NEK7 is crucial for this binding
serum creatinine (in words) (AKI mice [1]): alleviated the serum creatinine
survival (AKI mice [2]): improved the survival of mice
